The record followed here is article PMC8566451, “Lead optimization of novel quinolone chalcone compounds by a structure–activity relationship (SAR) study to increase efficacy and metabolic stability” (Scientific Reports, 2021).

Assay [1] concerns peripheral blood mononuclear cells (PBMC). Put plainly: PBMC culture and MTS assay. The conditions noted are these: for GI50: Homo sapiens, 48 h; for Selectivity Index (PBMC): PBMCs versus average GI50 of cancer cells. Type of assay: cell-based, human. How it is done: Peripheral blood mononuclear cells from healthy donors were isolated by density gradient centrifugation using Ficoll solution as described below. Blood samples used were supplied by the Canadian Blood Services under the Institutional Research Ethics Board Project # 18–099, and no human participants or volunteers were involved directly in the current study.
Whole blood was gently layered over an equal volume of Ficoll and centrifuged at 800 × g for 20 min with no brake. The Buffy coat was carefully collected by pipetting in 50 mL tubes and topped off with PBS. The cell isolates were subsequently mixed by inversion and centrifuged at 300 × g for 12 min. The supernatant was then carefully aspirated without disturbing the cell pellet, and the PBMCs were resuspended in ammonium-chloride-potassium (ACK) lysis buffer. The tubes were left to stand for 15 min to allow for red blood cell lysis. PBS was again added to the cells and centrifuged at 300 × g for 12 min and pelleted PBMCs were resuspended in RPMI + 10% heat inactivated FBS. Following counting, cells were centrifuged again and cryopreserved with a freezing medium composed of 40% FBS, 10% DMSO and 50% culture medium. Cryovials were placed in a − 80 °C for 24 h prior to transfer to liquid nitrogen for long-term storage.
PBMC cryovials were transferred from liquid nitrogen and placed in a 37 °C water bath until almost completely thawed. 1 mL of pre-warmed medium was added drop-wise and the entire contents of the cryovial was transferred to a 15-mL tube. Pre-warmed medium was then added to bring the volume up to 10 mL. The PBMCs were centrifuged at 300 × g for 10 min, and the cell pellet was gently resuspended with 5 mL of warm medium. The tubes were subsequently placed in a 37 °C incubator in a 5° angled rack for 4 h. An additional 5 mL warm medium containing of 30 units/mL benzonase nuclease was then injected into the cell solution and left to stand at room temperature for 5 min before centrifugation for 10 min at 300 × g. The pelleted cells were resuspended in the medium with 100 units/mL of IL-2 (Cedarlane Laboratories, Burlington, ON, Canada) and a small aliquot was used for cell counting and viability staining. The cells were plated in 96-well plates at a density of 80,000–120,000 cellules/well/100 µL.
Following a 48-h incubation period, eight different concentrations of compound solutions using two to four-fold serial dilutions were added to the cells (100 µl). Cells were incubated for an additional 48 h and cytotoxicity was established using the CellTiter 96 cytotoxicity assay (Promega). 40 μl of the tetrazolium dye was added to each well of the plate and then incubated for 2 h. OD was then read directly at 490 nm using the automated Biotek Synergy H4 plate reader. The GI50 was calculated similarly to the SRB.

The target in assay [2] is tubulin (colchicine binding site) (Sus scrofa, UniProt P02550+P02554). The assay is described as follows: Colchicine binding site competition assay (fluorescence of tubulin-colchicine complex, modified Dixon plot). The conditions noted are these: for Ki / mode of inhibition of colchicine binding: modified Dixon plot; for mode of inhibition of colchicine binding: trendlines intersect above the X-axis. How it is done: (a) CTR-21 and CTR-32 inhibit microtubule polymerization in vitro. Spontaneous polymerization of 20 µM porcine tubulin was initiated with the addition of 1 mmol/L GTP at 37 °C and monitored every minute for 60 min in the presence of the indicated concentration of CTR-21, CTR-32, nocodazole, paclitaxel, or a DMSO vehicle control. To make the graph simpler, only 3 µM concentration is shown. The effects of higher doses are shown in Supplemental Fig. S9. […] Fluorescent intensity was compared to the fluorescence of the tubulin-colchicine complex in absence of CTR-21 or CTR-32 (F0). […] A modified Dixon plot was used to determine the inhibitory concentration of CTR-21 and CTR-32 (Ki).
When we added either CTR-21 or CTR-32 to the colchicine-tubulin complex, we observed a reduction in fluorescence in a dose -dependent manner (Fig. 2b).
Microtubule assembly was assessed using a Tubulin Polymerization assay kit (BK011P; Cytoskeleton Inc., Denver, CO). 20 µM of purified porcine tubulin proteins (> 99% purity) were suspended in G-PEM buffer containing 80 mM PIPES, 2 mM MgCl2, 0.5 mM EGTA, 1 mM GTP (pH 6.9) and 20% glycerol. Polymerization was started by incubating at 37 °C and followed by absorbance readings every 1 min at 340 nm for 1 h using a Synergy H4 plate reader.

The test system of assay [3] is MDA-MB435. Put plainly: Sulforhodamine B (SRB) assay. It counts as cell-based. The conditions noted are these: Homo sapiens, MDA-MB-435, MDA-MB435 cells, 48 h. How it is done: (§1) The human MDA-MB-231, MCF7, MDA-MB-468, RPMI-8226 and HeLa cell lines were purchased from ATCC and maintained in Dulbecco's Modified Eagle Medium (DMEM)—high glucose supplemented with 10% fetal bovine serum (FBS) and antibiotics/antimycotics. Cell line authentication was carried out by Genetica DNA Laboratories (Burlington, NC) using a short tandem repeat (STR) profiling method (March 2015; July 2015; September 2016). Melanoma cells E-055 (MZ-Mel-3), E-097 (Mel-SOE), E-112 (UKRV-Mel-38), E-157 (UKRV-Mel-17) were obtained from the European Searchable Tumour Line Database (ESTDAB) cell bank (a kind gift of Dr. Graham Pawelec, Tubingen University, Germany). MDA-MB-435 was purchased from the Division of Cancer Treatment and Diagnosis Tumor Repository. All melanoma cells were cultured in Roswell Park Memorial Institute (RPMI) medium supplemented with 10% FBS and P/S/antimycotics. Primary human epidermal melanocytes from normal adult abdominal skin were purchased from ATCC (cat # PCS-200–013) and Cell Applications (cat#104-05a). The melanocytes were cultured in the media supplied by the companies.
(§2) The SRB assay was used to assess drug-induced cytotoxicity and cell proliferation as previously described[2],[33],[34] with a few modifications. Briefly, cells were plated 10,000 to 25,000 cells/cm^2 in 96-well plates (100 µl medium) and allowed to adhere overnight. The cell counts were different for each cell line to ensure optimal cell growth for the duration of the assay. Eight different concentrations of compound solutions using 2–4 times serial dilutions (100 µl). Cells were then incubated for an additional 48 h and then fixed with 100 µl ice-cold 10% (w/v) trichloroacetic acid (TCA) (without removing the cell medium, final concentration, 3.3% of TCA) and stained with 0.4% SRB (w/v) in 1% acetic acid (v/v). The relative growth rate (%) was calculated for each of the compound concentrations according to the following formula: 100 * (T − T0)/(C − T0), in which T is the optical density (OD) after exposure to a certain concentration of the compound after 48 h, T0 is the OD at the start of drug exposure (time zero) and C is the control growth. The GI50 for each compound was obtained from a non-linear sigmoidal dose–response (variable slope) curve fitted by GraphPad Prism v.4.03 software.

Assay [4] relates to MDA-MB468. Put plainly: Sulforhodamine B (SRB) assay. It counts as cell-based. To be noted: Homo sapiens, MDA-MB-468, MDA-MB468 breast cancer cells, 48 h. How it is done:
as §1, §2

For assay [5], the system named is MCF7. Put plainly: Sulforhodamine B (SRB) assay. Type of assay: cell-based. The conditions noted are these: Homo sapiens; for IC50: MCF7, Supplementary Table S1, SRB; for GI50: MCF7 breast cancer cells, 48 h, SRB. The method, then:
as §1, §2
Background: Sulforhodamine B stains cellular protein and so reports cell mass.

Setting [6] is: PBMC #1, MTS, read-out: GI50 PBMC #1.
Setting [7] is: PBMC #2, MTS, read-out: GI50 PBMC #2.

Molecules are shown by their SMILES. Where two headings read alike, the source gives them in different places.

With `COc1ccccc1C(=O)/C=C/c1cc2cccc(OC)c2[nH]c1=O` [CTR-21, (E)-8-methoxy-3-(3-(2-methoxyphenyl)-3-oxoprop-1-enyl) quinolin-2(1H)-one], the GI50 in assay [1] (setting [6]) amounted to 1860 ± 336 nM; in assay [1] (setting [7]), 1630 ± 317 nM; in assay [3], 7 ± 2 nM; in assay [4], 29 ± 10 nM; in assay [5] it was 16 ± 5 nM. The “Selectivity Index (PBMC)” value in assay [1] is on record as 106. Moreover, the “strength of inhibition relative to CTR-32 (Ki ratio)” value in assay [2] (CTR-21 versus CTR-32) is “about 4.9 times”. The Ki in assay [2] came out at 1470 nM. Moreover, the “mode of inhibition of colchicine binding” value in assay [2] is reported as “competitive inhibitors”. In addition, in assay [5], 75.1 ± 3.07 nM corresponded to half-maximal inhibition (IC50).
Take `CCOc1ccccc1C(=O)/C=C/c1cc2ccccc2[nH]c1=O` [CTR-32, (E)-3-(3-(2-ethoxyphenyl)-3-oxoprop-1-enyl)quinolin-2(1H)-one]: the GI50 in assay [1] (setting [6]) was found to be 1880 ± 147 nM; in assay [1] (setting [7]) it was 787 ± 396 nM; in assay [3], 13 ± 5 nM; in assay [4] it was 26 nM; in assay [5], 27 ± 6 nM. In assay [1], the “Selectivity Index (PBMC)” value is given as 67. In assay [2], the Ki stood at 7200 nM. Moreover, in assay [2], the “mode of inhibition of colchicine binding” value is reported as “competitive inhibitors”. This compound also came in with an IC50 in assay [5] of 46.4 ± 3.61 nM.

As usually defined, the GI50 is the concentration that inhibits growth by half. In general, Ki refers to a measure of affinity in units of concentration, obtained from inhibition or displacement. As usually defined, the IC50 is the midpoint of a concentration-inhibition curve.
